Measurements published in the supplement of paper PMC10307832.

Assays:
Test in all cases: relative viability (nuclei count vs DMSO), 5 days (fraction); higher = more cells survive
[1] = compound: C#Cc1cccc(Nc2ncnc3cc(OC)c(OCCCCCCC(=O)NO)cc23)c1 [CUDC-101] + CS(=O)(=O)N1CCN(Cc2cc3nc(-c4cccc5[nH]ncc45)nc(N4CCOCC4)c3s2)CC1 [Pictilisib] (partner 1 µM)
Procedure, shortened: (§1)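 For relative viability, nuclei counts in treated wells were divided by those in vehicle wells. Lung cancer cell lines had been pin-tool dosed in 1536-well plates the day after seeding and cultured for 5 days, then fixed and stained in one step (final 0.05% Triton X-100, 1% formaldehyde, 1 ug/ml Hoechst) and imaged at 4×. Doses were one drug alone or a fixed anchor-drug dose plus five library-drug doses (not always all listed) in √10 steps, and values are duplicate-plate medians.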

[2] = compound: C1=CC=C2C(=C1)N=C(S2)C(C#N)C3=NC(=NC=C3)NCCC4=CN=CC=C4 + N=C(N)NC(=N)NCCc1ccccc1 [Phenformin] (partner 250 µM)
Procedure, shortened: as §1

[3] = compound: C#Cc1cccc(Nc2ncnc3cc(OC)c(OCCCCCCC(=O)NO)cc23)c1 [CUDC-101] + O=C(c1cc(Cc2n[nH]c(=O)c3ccccc23)ccc1F)N1CCN(C(=O)C2CC2)CC1 [Olaparib] (partner 8 µM)
Procedure, shortened: as §1

[4] = compound: COc1cc2/c(=N/c3ccc(Br)cc3F)nc[nH]c2cc1OCC1CCN(C)CC1 [Vandetanib] + NC(=O)Nc1cc(-c2cccc(F)c2)sc1C(=O)N[C@H]1CCCNC1 [AZD7762] (partner 0.2 µM)
Procedure, shortened: as §1

| Cell Line | relative viability ([1]; first compound 0.01 µM) | relative viability ([1]; first compound 0.03162 µM) | relative viability ([1]; first compound 0.1 µM) | relative viability ([1]; first compound 0.3162 µM) | relative viability ([1]; first compound 1 µM) | relative viability ([2]; first compound 0.005 µM) | relative viability ([2]; first compound 0.01581 µM) | relative viability ([2]; first compound 0.05 µM) | relative viability ([2]; first compound 0.1581 µM) | relative viability ([2]; first compound 0.5 µM) | relative viability ([3]; first compound 0.01 µM) | relative viability ([3]; first compound 0.03162 µM) | relative viability ([3]; first compound 0.1 µM) | relative viability ([3]; first compound 0.3162 µM) | relative viability ([3]; first compound 1 µM) | relative viability ([4]; first compound 0.02 µM) | relative viability ([4]; first compound 0.06325 µM) | relative viability ([4]; first compound 0.2 µM) | relative viability ([4]; first compound 0.6325 µM) | relative viability ([4]; first compound 2 µM) |
| --- | --- | --- | --- | --- | --- | --- | --- | --- | --- | --- | --- | --- | --- | --- | --- | --- | --- | --- | --- | --- |
| NCI-H2023 | 0.245 | 0.223 | 0.257 | 0.226 | 0.151 | 0.384 | 0.439 | 0.424 | 0.47 | 0.423 | 0.499 | 0.448 | 0.453 | 0.486 | 0.387 |  |  |  |  |  |
| SK-LU-1 | 0.703 | 0.597 | 0.628 | 0.427 | 0.381 | 0.323 | 0.593 | 0.529 | 0.608 | 0.475 | 0.473 | 0.503 | 0.421 | 0.487 | 0.434 |  |  |  |  |  |
| LCLC-97TM1 | 0.276 | 0.283 | 0.192 | 0.226 | 0.144 | 0.429 | 0.417 | 0.403 | 0.431 | 0.407 | 0.452 | 0.4 | 0.368 | 0.446 | 0.437 | 0.185 | 0.306 | 0.299 | 0.261 | 0.139 |
| NCI-H1915 | 1 | 0.907 | 0.882 | 0.924 | 0.531 | 0.312 | 0.37 | 0.356 | 0.398 | 0.353 | 0.25 | 0.232 | 0.225 | 0.229 | 0.164 | 0.696 | 0.664 | 0.693 | 0.612 | 0.719 |
| NCI-H358 | 0.354 | 0.37 | 0.349 | 0.397 | 0.258 | 0.216 | 0.329 | 0.334 | 0.404 | 0.258 | 0.641 | 0.625 | 0.66 | 0.543 | 0.408 | 0.545 | 0.465 | 0.476 | 0.431 | 0.358 |
| LK-2 | 0.593 | 0.481 | 0.497 | 0.59 | 0.312 | 0.392 | 0.289 | 0.396 | 0.58 | 0.33 | 0.821 | 0.754 | 0.597 | 0.495 | 0.281 | 0.36 | 0.345 | 0.309 | 0.369 | 0.515 |
| EPLC-272H | 0.449 | 0.434 | 0.275 | 0.244 | 0.18 | 0.225 | 0.243 | 0.275 | 0.286 | 0.311 | 0.885 | 0.703 | 0.596 | 0.448 | 0.365 | 0.23 | 0.428 | 0.244 | 0.201 | 0.189 |
| NCI-H2228 | 0.246 | 0.485 | 0.494 | 0.36 | 0.252 | 0.19 | 0.281 | 0.299 | 0.316 | 0.314 | 0.756 | 0.783 | 1.03 | 0.659 | 0.653 |  |  |  |  |  |
| NCI-H1563 | 0.652 | 0.607 | 0.709 | 0.667 | 0.509 | 0.595 | 0.62 | 0.635 | 0.673 | 0.667 |  |  |  |  |  |  |  |  |  |  |
